{
  "source": "patent US20250223559A1",
  "about": "“AXIOLOID: A STEM CELL-BASED MODEL OF HUMAN AXIAL DEVELOPMENT” (KYOTO UNIVERSITY, priority 2022, published 2025)",
  "system": "human Axioloids",
  "assay": "Axioloid morphogenesis during Matrigel embedding phase (brightfield live imaging, length, segment and somite quantification)",
  "type": "cell-based",
  "conditions": "added during MG embedding phase 72 h-120 h (RA 100 nM, ROL 10 μM, RAL 1 μM); 96 h and 120 h",
  "description": "Human iPS cells were seeded on iMatrix-511 silk (Nippi) coated dishes at a density of 1.3×10^4 cells/well into 6 well plates 5 days prior to Axioloid induction and used at 60% confluency. All subsequent induction steps were performed in AK02N (Reprocell) medium without component C (AK02N-C). Initially, hiPSCs were pulsed with a strong mesoderm and primitive streak fate inducing combination of bFGF (20 ng ml-1) and WNT agonist CHIR99021 (5 μM) for 24 h. CHIR99021 concentration may need to be adjusted depending on the used iPSC line, but remains usually in the range of 3-5 μM. 24 h after the initial pulse, cells were dissociated with Accutase (Thermo Fisher Scientific) and cultured for 24 h in 96-well U-bottom low attachment plates (Sumilon) at 500 cells/well in 50 μl of AK02N—C based aggregation medium supplemented with CHIR99021 (5 μM), basic FGF (20 ng ml^1), TGFβ inhibitor SB431542 (10 μM) and ROCK inhibitor Y27632 (10 μM). 24 h after aggregation, 150 μl of AK02N-C medium was added into each well and exchanged again after 24 h with 150 μl of fresh AK02N-C medium. 48 h after aggregation Axioloids were transferred one-by-one into BSA-treated 96-well flat-bottom low attachment plates (Watson) and embedded into 80 μl of AK02N-C medium containing 10% growth factor-reduced Matrigel (Corning) and cultured further at 37° C. and 5% CO2 for 24 to 48 h. Depending on the experimental setup Retinoic Acid signaling molecules, i.e. Retinoic Acid (RA) (100 nM), Retinol (ROL) (10 μM) or all trans-Retinal (RAL) (1 μM) were added to the MG containing medium throughout the embedding phase. Small molecule inhibitors of FGF (PD173074 (250 nM)), WNT (XAV939 (2 μM)), RA (BMS493 (2.5 μM)) and Notch (DAPT (25 μM)) signaling were also added during the embedding phase and their effects on Axioloids assessed accordingly. For details of the used recombinant human proteins, small molecule agonists and inhibitors, please see Supplementary Table 1. […]\nPeriodicity of segmentation was quantified from brightfield live-cell imaging data obtained with an inverted Ti2 microscope system (Nikon) using PlanApo λ 10× objective. […]\nQuantification of length or intensity based on imaging data was performed using Fiji^57. Rostrocaudal length of formed segments was quantified from a center plane in z-stack images of Phalloidin-stained Axioloids. The longitudinal axes of Axioloids were measured on bright field images using Segmented Line tool. For quantifying fluorescent intensity of HCR or IHC staining, first, maximum intensity z projection images were created from multi-channel z-stack confocal images, then intensity of each channel was quantified along the longitudinal axis of Axioloids by Segmented Line tool, with a line width which corresponds to approximately 80% of the lateral length of Axioloids. […]",
  "data": [
    {"smiles": "CC1=C(/C=C/C(C)=C/C=C/C(C)=C/C=O)C(C)(C)CCC1", "note": "[RAL, all trans-Retinal]", "values": [
      {"measurement": "stability and epithelialization of forming segments", "result": "dramatic improvement of the stability and epithelialization of forming segments"}
    ]}
  ]
}
